One experiment deals with sLFA-1/ICAM-1 (Homo sapiens, UniProt P05107+P20701, DEL701-769). The experiment is described as follows: sLFA-1/ICAM-1 ELISA. The class given is binding. Particulars: sLFA-1 coated plates, 5dICAM-Fc binding, ELISA; read-out: LFA-1/ICAM (IC50). The procedure: (§1) sLFA-1/ICAM-1 ELISA and Mac-1/ICAM-1 ELISA
(§2) Plates were coated with either 50 μl/well of 2.0 ug/ml solution of sLFA-1 or Mac-1 receptor in divalent cation buffer (1 mM MnCl2, 0.14M NaCl, 20 mM HEPES pH 7.2) at 4° C. overnight. Two hundred fifty μl of blocking buffer (1% BSA in divalent cation buffer) was added to each well 1 hour at 37° C. Plates were washed 3 times with wash buffer (TBS/0.05% Tween-20/1 mM MnCl2). The compound to be tested was solubilized in DMSO. A series of 1:3 dilutions were performed to achieve a concentration range of 0.45 nM-3 uM. Fifty μl of binding buffer (0.5% BSA in divalent cation buffer)/1% DMSO and 50 μl of the solutions to be tested were added to the appropriate wells and incubated for 1 hour. Fifty μl of 5dICAM-Fc (27 ng/ml) was added to the appropriate wells and 50 μl binding buffer was added to non-specific binding wells and incubated for 2 hours and washed. One hundred μl of 1:4000 HRP-goat anti-huIgG was added to each well and incubated for 1 hour and washed. One hundred μl of 1:1 TMB solution was added to each well and developed for 20 min at room temperature. Color development was stopped by adding 100 μl H3PO4 to each well. Absorbance was measured at 450 nm.
Background: ELISA stands for enzyme-linked immunosorbent assay.

The subject of experiment [1] is PBMC's from two healthy donors. The experiment is described as follows: Human Mixed Lymphocyte Reaction (hMLR). Format: cell-based. As to conditions: 3H-thymidine incorporation, read-out: human MLR (IC50). The procedure: Human Mixed Lymphocyte Reaction (hMLR)
PBMC's were isolated from two healthy donors by Ficoll gradient. Cells were resuspended with 4 mL assay media and counted with a Coulter Counter. Both cell populations were resuspended to 1×10^7/mL. Stimulator cells were irradiated for 2.5 min (2000 RAD) in cesium irradiator. 5×10^5 cells were added to duplicate wells of the plate. Included were quadruplicate wells receiving responder cells alone and stimulator cells alone. The compound to be tested was solubilized in DMSO. A series of 1:3 dilutions were performed to achieve a concentration range of 0.45 nM-3 uM. One hundred μl of the solutions to be tested were added to the cell plate (100 μl of 2% DMSO/media added to control wells). Plates were then incubated for 2.5 days at 37° C. with 5% CO2. Plates were pulsed with 50 μl/well 3H-thymidine at 0.5 uCi/well then incubated for 6 hours at 37° C. with 5% CO2. Cells were harvested using Cell Harvester (TomTec) and counted on TopCount (Perkin Elmer).
Background: Incorporation of labelled thymidine or its analogues reports DNA synthesis.

The next experiment addresses Mac-1/ICAM-1 (Homo sapiens, UniProt P05107+P11215). The experiment is described as follows: Mac-1/ICAM-1 ELISA. As to conditions: Mac-1 coated plates, 5dICAM-Fc binding. As for the experimental part: as §1, §2

Some results are limits rather than exact numbers.

Sequence of sLFA-1/ICAM-1 (P20701 26-1090 limits assumed, stated change not applied): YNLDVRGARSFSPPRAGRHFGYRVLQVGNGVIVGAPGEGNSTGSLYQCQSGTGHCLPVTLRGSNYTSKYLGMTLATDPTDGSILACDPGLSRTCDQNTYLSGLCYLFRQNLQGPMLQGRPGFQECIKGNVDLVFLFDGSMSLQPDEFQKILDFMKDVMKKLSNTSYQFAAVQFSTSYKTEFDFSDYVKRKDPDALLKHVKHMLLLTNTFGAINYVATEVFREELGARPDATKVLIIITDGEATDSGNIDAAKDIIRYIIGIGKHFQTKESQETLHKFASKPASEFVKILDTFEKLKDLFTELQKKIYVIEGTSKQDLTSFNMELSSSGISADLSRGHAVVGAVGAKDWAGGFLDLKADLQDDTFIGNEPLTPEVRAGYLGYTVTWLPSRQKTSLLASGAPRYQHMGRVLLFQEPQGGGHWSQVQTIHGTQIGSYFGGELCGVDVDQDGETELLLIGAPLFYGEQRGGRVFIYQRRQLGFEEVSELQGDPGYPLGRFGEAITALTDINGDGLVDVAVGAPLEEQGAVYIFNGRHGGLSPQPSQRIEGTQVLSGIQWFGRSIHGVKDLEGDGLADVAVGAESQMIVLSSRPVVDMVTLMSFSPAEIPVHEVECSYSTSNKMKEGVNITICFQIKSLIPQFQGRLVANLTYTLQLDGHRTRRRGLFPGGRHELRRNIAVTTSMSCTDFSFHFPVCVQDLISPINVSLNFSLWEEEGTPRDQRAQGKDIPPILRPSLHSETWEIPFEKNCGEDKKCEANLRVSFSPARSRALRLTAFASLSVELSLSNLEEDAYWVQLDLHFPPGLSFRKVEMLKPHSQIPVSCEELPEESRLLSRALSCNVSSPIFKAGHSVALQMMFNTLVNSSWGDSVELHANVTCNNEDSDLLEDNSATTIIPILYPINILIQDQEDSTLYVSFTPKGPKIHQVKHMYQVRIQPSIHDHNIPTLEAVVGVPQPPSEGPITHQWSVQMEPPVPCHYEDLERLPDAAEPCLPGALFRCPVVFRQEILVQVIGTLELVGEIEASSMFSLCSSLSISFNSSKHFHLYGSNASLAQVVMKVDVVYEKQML
Sequence of sLFA-1/ICAM-1 (P05107 23-700 limits assumed, stated change not applied): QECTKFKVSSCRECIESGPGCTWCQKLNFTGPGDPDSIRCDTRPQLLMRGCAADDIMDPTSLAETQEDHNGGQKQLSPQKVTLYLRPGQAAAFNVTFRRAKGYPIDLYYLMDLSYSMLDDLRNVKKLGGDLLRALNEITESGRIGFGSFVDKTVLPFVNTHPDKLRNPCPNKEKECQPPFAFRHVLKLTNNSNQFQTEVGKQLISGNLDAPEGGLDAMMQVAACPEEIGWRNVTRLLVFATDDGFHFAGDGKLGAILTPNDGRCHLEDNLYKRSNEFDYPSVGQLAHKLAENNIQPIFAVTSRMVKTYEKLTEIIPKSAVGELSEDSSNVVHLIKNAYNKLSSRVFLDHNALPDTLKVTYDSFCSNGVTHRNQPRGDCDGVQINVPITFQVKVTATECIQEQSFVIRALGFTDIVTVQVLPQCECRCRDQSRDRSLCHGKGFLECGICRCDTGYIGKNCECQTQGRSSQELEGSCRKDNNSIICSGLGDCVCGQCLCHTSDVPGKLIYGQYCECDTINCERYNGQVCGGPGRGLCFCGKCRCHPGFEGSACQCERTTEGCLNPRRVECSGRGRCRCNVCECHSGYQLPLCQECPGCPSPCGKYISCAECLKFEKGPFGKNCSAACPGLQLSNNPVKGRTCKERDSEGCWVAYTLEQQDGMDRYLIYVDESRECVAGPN
Sequence of Mac-1/ICAM-1 (P05107 23-769, other chains not shown): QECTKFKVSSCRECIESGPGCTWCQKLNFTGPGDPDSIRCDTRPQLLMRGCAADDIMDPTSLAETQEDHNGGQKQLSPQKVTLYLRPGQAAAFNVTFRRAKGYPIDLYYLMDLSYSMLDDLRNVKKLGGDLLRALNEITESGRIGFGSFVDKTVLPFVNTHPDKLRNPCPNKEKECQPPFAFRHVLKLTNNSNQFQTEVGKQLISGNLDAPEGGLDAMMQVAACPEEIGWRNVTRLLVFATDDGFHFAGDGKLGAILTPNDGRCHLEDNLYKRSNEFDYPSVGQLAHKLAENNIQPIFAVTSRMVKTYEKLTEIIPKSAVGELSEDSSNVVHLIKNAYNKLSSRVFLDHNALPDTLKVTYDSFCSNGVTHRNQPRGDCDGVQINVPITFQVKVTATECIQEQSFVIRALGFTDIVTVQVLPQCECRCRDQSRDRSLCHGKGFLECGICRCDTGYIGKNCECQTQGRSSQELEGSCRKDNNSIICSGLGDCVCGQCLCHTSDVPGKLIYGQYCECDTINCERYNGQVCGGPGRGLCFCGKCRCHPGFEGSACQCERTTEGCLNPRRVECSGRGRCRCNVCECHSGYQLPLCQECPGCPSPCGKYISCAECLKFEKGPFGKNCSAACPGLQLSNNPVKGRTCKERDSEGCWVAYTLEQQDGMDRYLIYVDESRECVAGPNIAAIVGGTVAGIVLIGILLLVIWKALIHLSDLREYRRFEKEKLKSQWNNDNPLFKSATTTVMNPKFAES

With `Cc1nc(NCCCc2cccc(O)c2)nc(C)c1C(=O)N[C@@H](CNC(=O)c1cscn1)C(=O)O` [Example 46, (S)-2-({2-[3-(3-hydroxy-phenyl)-propylamino]-4,6-dimethyl-pyrimidine-5-carbonyl}-amino)-3-[(thiazole-4-carbonyl)-amino]-propionic acid], the IC50 on sLFA-1/ICAM-1 was 0.026 µM; in experiment [1], 0.753 µM. For `Cc1ccc(C(=O)NC[C@H](NC(=O)c2c(C)nc(NCCCc3cccc(O)c3)nc2C)C(=O)O)s1` [Example 87, (S)-2-({2-[3-(3-hydroxy-phenyl)-propylamino]-4,6-dimethyl-pyrimidine-5-carbonyl}-amino)-3-[(5-methyl-thiophene-2-carbonyl)-amino]-propionic acid] the same measures were 0.004 µM and 1.43 µM. In the case of `Cc1nc(NC2CCc3cccc(O)c3C2)nc(C)c1C(=O)N[C@@H](CNC(=O)c1cnccn1)C(=O)O` (stereo partly drawn) [Example 117, (S)-2-{[2-(8-Hydroxy-1,2,3,4-tetrahydro-naphthalen-2-ylamino)-4,6-dimethyl-pyrimidine-5-carbonyl]-amino}-3-[(pyrazine-2-carbonyl)-amino]-propionic acid], the results for the IC50 (on sLFA-1/ICAM-1; in experiment [1]) were 0.175 µM and 5.11 µM, respectively. As to `Cc1nc(NCCCc2cccc(O)c2)nc(C)c1C(=O)N[C@@H](CNC(=O)N(C)C)C(=O)O` [Example 113, (S)-3-(3,3-Dimethyl-ureido)-2-({2-[3-(3-Hydroxy-phenyl)-propylamino]-4,6-dimethyl-pyrimidine-5-carbonyl}-amino)-propionic acid], the IC50 was found to be 0.074 µM at sLFA-1/ICAM-1 and 4.18 µM in experiment [1]. Take `Cc1nc(NCCCc2ccc3cn[nH]c3c2)nc(C)c1C(=O)N[C@@H](CNC(=O)c1cccs1)C(=O)O` [Example 63, (S)-2-({2-[3-(1H-Indazol-6-yl)-propylamino]-4,6-dimethyl-pyrimidine-5-carbonyl}-amino)-3-[(thiophene-2-carbonyl)-amino]-propionic acid]: the IC50 on sLFA-1/ICAM-1 turned out to be 0.323 µM; on Mac-1/ICAM-1, 0.67 µM. In the case of `Cc1nc(NCCCc2cccc(O)c2)nc(C)c1C(=O)N[C@@H](CNC(=O)c1cnccn1)C(=O)O` [Example 93, (S)-2-({2-[3-(3-hydroxy-phenyl)-propylamino]-4,6-dimethyl-pyrimidine-5-carbonyl}-amino)-3-[(pyrazine-2-carbonyl)-amino]-propionic acid], the IC50 at sLFA-1/ICAM-1 worked out at 0.029 µM; in experiment [1], 2.3 µM.

For the compound `Cc1cnc(C(=O)NC[C@H](NC(=O)c2c(C)nc(NCCCc3cccc(O)c3)nc2C)C(=O)O)cn1` [Example 101, (S)-2-({2-[3-(3-Hydroxy-phenyl)-propylamino]-4,6-dimethyl-pyrimidine-5-carbonyl}-amino)-3-[(5-methyl-pyrazine-2-carbonyl)-amino]-propionic acid], the IC50 at sLFA-1/ICAM-1 stood at 0.052 µM; in experiment [1], 6.34 µM.

Consider `CCc1nc(NCCCc2cccc(O)c2)nc(C)c1C(=O)N[C@@H](CNC(=O)c1cccs1)C(=O)O` [Example 78, (S)-2-({4-Ethyl-2-[3-(3-hydroxy-phenyl)-propylamino]-6-methyl-pyrimidine-5-carbonyl}-amino)-3-[(thiophene-2-carbonyl)-amino]-propionic acid], for which the IC50 was found to be 0.02 µM at sLFA-1/ICAM-1 and 0.766 µM in experiment [1]. For `Cc1nc(NCCCc2cccc(O)c2)nc(C)c1C(=O)N[C@@H](CNC(=O)OCc1ccccc1)C(=O)O` [Example 111, (S)-3-Benzyloxycarbonylamino-2-({2-[3-(3-Hydroxy-phenyl)-propylamino]-4,6-dimethyl-pyrimidine-5-carbonyl}-amino)-propionic acid] the same measures were 0.056 µM and 4.88 µM. Turning to `Cc1ccc(O)cc1CCCNc1nc(C)c(C(=O)N[C@@H](CNC(=O)c2cccs2)C(=O)O)c(C)n1` [Example 72, (S)-2-({2-[3-(2-Methyl-5-hydroxy-phenyl)-propylamino]-4,6-dimethyl-pyrimidine-5-carbonyl}-amino)-3-[(thiophene-2-carbonyl)-amino]-propionic acid], the IC50 on sLFA-1/ICAM-1 came to 0.159 µM.

With `Cc1nc(NC/C=C\c2cccc(O)c2)nc(C)c1C(=O)N[C@@H](CNC(=O)c1cccs1)C(=O)O` [Example 73, (S)-2-({2-[(Z)-3-(3-Hydroxy-phenyl)-allylamino]-4,6-dimethyl-pyrimidine-5-carbonyl}-amino)-3-[(thiophene-2-carbonyl)-amino]-propionic acid], the IC50 at sLFA-1/ICAM-1 was determined as 0.056 µM; in experiment [1], 0.809 µM. Take `Cc1nc(NCCCc2cccc(O)c2F)nc(C)c1C(=O)N[C@@H](CNC(=O)c1cccs1)C(=O)O` [Example 70, (S)-2-({2-[3-(2-Fluoro-3-hydroxy-phenyl)-propylamino]-4,6-dimethyl-pyrimidine-5-carbonyl}-amino)-3-[(thiophene-2-carbonyl)-amino]-propionic acid]: the IC50 at sLFA-1/ICAM-1 was no less than 3 µM. As for `Cc1nc(NC/C=C/c2cccc(O)c2)nc(C)c1C(=O)N[C@@H](CNC(=O)c1cccs1)C(=O)O` [Example 74, (S)-2-({2-[(E)-3-(3-Hydroxy-phenyl)-allylamino]-4,6-dimethyl-pyrimidine-5-carbonyl}-amino)-3-[(thiophene-2-carbonyl)-amino]-propionic acid], the figures for the IC50 (on sLFA-1/ICAM-1; in experiment [1]) were 0.152 µM and 2.06 µM, respectively.

With `Cc1nc(NCCCc2cccc(O)c2)nc(C)c1C(=O)N[C@@H](CNC(=O)c1csc(-c2ccncc2)n1)C(=O)O` [Example 47, (S)-2-({2-[3-(3-hydroxy-phenyl)-propylamino]-4,6-dimethyl-pyrimidine-5-carbonyl}-amino)-3-[(2-pyridin-4-yl-thiazole-4-carbonyl)-amino]-propionic acid], at sLFA-1/ICAM-1, the IC50 came out at 0.07 µM. On the same count and under the same terms, the figure for `Cc1nc(NC2CCc3cc(O)ccc3C2)nc(C)c1C(=O)N[C@@H](CNC(=O)c1cccs1)C(=O)O` (stereo partly drawn) [Example 17, (S) 2-(2-[6-hydroxy-1,2,3,4-tetrahydro-naphthalen-2-ylamino]-4,6-dimethyl-pyrimidine-5-carbonyl-amino)-3-[(thiophene-2-carbonyl)-amino]-propionic acid] is 0.309 µM; for `Cc1nc(NCCCc2cccc(O)c2)nc(C)c1C(=O)N[C@@H](CNC(=O)c1ccccn1)C(=O)O` [Example 42, (S)-2-({2-[3-(3-hydroxy-phenyl)-propylamino]-4,6-dimethyl-pyrimidine-5-carbonyl}-amino)-3-[(pyridine-2-carbonyl)-amino]-propionic acid] it is 0.085 µM. As for `Cc1nc(NCCCc2cccc(O)c2)ncc1C(=O)N[C@@H](CNC(=O)c1cccs1)C(=O)O` [Example 76, (S)-2-({2-[3-(3-Hydroxy-phenyl)-propylamino]-4-methyl-pyrimidine-5-carbonyl}-amino)-3-[(thiophene-2-carbonyl)-amino]-propionic acid], the IC50 on sLFA-1/ICAM-1 is 0.009 µM; in experiment [1], 1.76 µM.

Consider `Cc1nc(NCCCc2ccc(O)cc2)nc(C)c1C(=O)N[C@@H](CNC(=O)c1cccs1)C(=O)O` [Example 69, (S)-2-({2-[3-(4-Hydroxy-phenyl)-propylamino]-4,6-dimethyl-pyrimidine-5-carbonyl}-amino)-3-[(thiophene-2-carbonyl)-amino]-propionic acid], for which the IC50 at sLFA-1/ICAM-1 amounted to 0.028 µM. Same read-out and setting: the same measure for `Cc1ccc(CCCNc2nc(C)c(C(=O)N[C@@H](CNC(=O)c3cccs3)C(=O)O)c(C)n2)cc1O` [Example 67, (S)-2-({2-[3-(3-Hydroxy-4-methyl-phenyl)-propylamino]-4,6-dimethyl-pyrimidine-5-carbonyl}-amino)-3-[(thiophene-2-carbonyl)-amino]-propionic acid]: 0.329 µM; for `Cc1nc(NCCCc2cccc(O)c2)nc(C)c1C(=O)N[C@@H](CNC(=O)c1ccc(Cl)s1)C(=O)O` [Example 95, (S)-3-[(5-Chloro-thiophene-2-carbonyl)-amino]-2-({2-[3-(3-hydroxy-phenyl)-propylamino]-4,6-dimethyl-pyrimidine-5-carbonyl}-amino)-propionic acid]: 0.265 µM. With `CC(=O)NC[C@H](NC(=O)c1c(C)nc(NCCCc2cccc3[nH]ncc23)nc1C)C(=O)O` [Example 4, (S)-3-acetylamino-2-({2-[3-(1H-indazol-4-yl)-propylamino]-4,6-dimethyl-pyrimidine-5-carbonyl}-amino)-propionic acid], the IC50 on sLFA-1/ICAM-1 was 0.12 µM; in experiment [1] it was 10 µM.

The values are drawn from patent US20120270875A1, “PYRIMIDINE AMIDE COMPOUNDS” (priority 2011, published 2012).
